In ChEMBL document CHEMBL3351937, “Potential C-terminal-domain inhibitors of heat shock protein 90 derived from a C-terminal peptide helix” (Bioorg Med Chem, 2014):
Activity calls are given as the source filed them. The rule behind the calls is not given here. Bridge positions count the residues as written; N and C are the ends. Square brackets hold non-standard residues; d marks the D form. Peptide text beside a SMILES is read from it. * marks the point of attachment. 5FAM = O=C1OC2(c3ccc(O)cc3Oc3cc(O)ccc32)c2ccc(C(=O)*)cc21; S5 = C=CCCC[C@](C)(N)C(=O)O

Legend:
[1] = target: T1, Heat shock protein HSP 90-beta (Homo sapiens, UniProt P08238); test: Inhibition of HSP90 in human MDA-kb2 cells assessed as reduction in glucocorticoid receptor-dependent luciferase expression after 18 hrs by firefly luciferase reporter gene assay; type: cell-based
T1 sequence (P08238 whole entry): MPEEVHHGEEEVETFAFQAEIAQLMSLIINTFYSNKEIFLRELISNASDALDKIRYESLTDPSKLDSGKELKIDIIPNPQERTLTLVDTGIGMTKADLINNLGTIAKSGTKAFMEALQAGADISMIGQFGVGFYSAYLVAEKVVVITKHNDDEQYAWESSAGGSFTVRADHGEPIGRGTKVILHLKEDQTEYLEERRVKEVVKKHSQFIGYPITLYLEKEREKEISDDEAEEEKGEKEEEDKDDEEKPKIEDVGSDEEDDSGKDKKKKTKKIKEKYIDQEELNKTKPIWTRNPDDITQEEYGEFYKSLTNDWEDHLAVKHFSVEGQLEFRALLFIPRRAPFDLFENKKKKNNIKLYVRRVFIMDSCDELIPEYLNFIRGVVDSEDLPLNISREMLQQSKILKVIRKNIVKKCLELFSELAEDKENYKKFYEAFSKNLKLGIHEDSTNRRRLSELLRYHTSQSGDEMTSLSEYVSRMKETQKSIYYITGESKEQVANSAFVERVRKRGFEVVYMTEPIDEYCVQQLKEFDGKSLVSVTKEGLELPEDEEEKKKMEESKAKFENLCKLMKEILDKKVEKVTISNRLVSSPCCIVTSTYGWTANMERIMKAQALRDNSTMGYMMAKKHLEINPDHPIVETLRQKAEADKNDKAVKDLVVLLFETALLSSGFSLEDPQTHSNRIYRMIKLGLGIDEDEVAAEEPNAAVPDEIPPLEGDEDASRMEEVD

[2] = Cytotoxicity against human MDA-kb2 cells assessed as reduction in cell viability after 18 hrs by Promega cell titer-Glo assay; type: functional; conditions: MDA-kb2, 18 h, read-out: LC50 (the source's name)
[3] = Solubility in phosphate buffer; type: physicochemical
[4] = target: T2, Heat shock protein HSP 90 (Oryctolagus cuniculus, UniProt P11500); test: Inhibition of HSP90 in rabbit reticulocyte lysate after 90 mins by luciferase renaturation assay
T2 sequence (P11500 whole entry): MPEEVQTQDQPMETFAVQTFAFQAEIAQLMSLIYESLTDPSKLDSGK

[5] = target: T3, Heat shock protein HSP 90 (Oryctolagus cuniculus) (UniProt P11500); test: Inhibition of HSP90 in rabbit reticulocyte lysate at 250 uM after 90 mins by luciferase renaturation assay
T3 sequence (whole entry): T2 sequence (P11500 whole entry)

[6] = test system: MDA-kb2; test: Induction of plasma membrane disruption in human MDA-kb2 cells; type: functional, cell-based
[7] = target: T1, Heat shock protein HSP 90-beta; test: Binding affinity to human HSP90 using FITC-labeled compound at 1 nM by fluorescence polarization assay
[8] = target: T1, Heat shock protein HSP 90-beta; test: Binding affinity to human HSP90 using FAM-labeled compound by fluorescence polarization assay

| Compound | IC50 [1] [µM] | CC50 [2] [µM] | solubility [3] [µM] | IC50 [4] [µM] | inhibition [5] | also measured |
| --- | --- | --- | --- | --- | --- | --- |
| CC[C@H](C)[C@H](NC(=O)[C@H](CCCNC(=N)N)NC(=O)[C@H](CC(N)=O)NC(=O)[C@H](C)NC(=O)[C@H](Cc1cnc[nH]1)NC(=O)[C@@H](NC(=O)[C@H](CCC(N)=O)NC(=O)[C@@H]1CCCN1C(=O)[C@H](CC(=O)O)NC(C)=O)[C@@H](C)O)C(=O)N[C@@H](Cc1ccc(O)cc1)C(=O)N[C@@H](CCCNC(=N)N)C(=O)N[C@@H](CCSC)C(=O)N[C@H](C(=O)N[C@H]1CCCCNC(=O)C[C@@H](C(N)=O)NC(=O)[C@H](CC(C)C)NC(=O)[C@H](Cc2c[nH]c3ccccc23)NC(=O)[C@H](CC(C)C)NC1=O)[C@@H](C)CC (Ac-DPQTHANRIYRMIKLWLD-NH2; lactam 14-18) | > 27 | > 27 | ≥ 100 | 8.43 | – | – |
| Ac-DPQTHANRIYRMIKLGLG-NH2 | > 160 | > 160 | ≥ 100 | 233 | Active | – |
| Ac-DPQTHANRIWRMIKLGLG-NH2 | – | – | – | – | Active | – |
| Ac-DPQTHANRIYRMIKLWLG-NH2 | – | 18.9 | ≥ 100 | – | – | Activity [6]: Active |
| CC[C@H](C)[C@H](NC(=O)[C@H](CCCNC(=N)N)NC(=O)[C@H](CC(N)=O)NC(=O)[C@H](C)NC(=O)[C@H](Cc1cnc[nH]1)NC(=O)[C@@H](NC(=O)[C@H](CCC(N)=O)NC(=O)[C@@H]1CCCN1C(=O)[C@H](CC(=O)O)NC(C)=O)[C@@H](C)O)C(=O)N[C@@H](Cc1c[nH]c2ccccc12)C(=O)N[C@@H](CCCNC(=N)N)C(=O)N[C@@H](CCSC)C(=O)N[C@H](C(=O)N[C@H]1CCCCNC(=O)C[C@@H](C(N)=O)NC(=O)[C@H](CC(C)C)NC(=O)[C@H](Cc2c[nH]c3ccccc23)NC(=O)[C@H](CC(C)C)NC1=O)[C@@H](C)CC (Ac-DPQTHANRIWRMIKLWLD-NH2; lactam 14-18) | 0.73 | 1.86 | ≥ 100 | 4.11 | – | Activity [6]: Active |
| CO[C@@H]1[C@@H](OC(N)=O)[C@@H](O)[C@H](Oc2ccc3c(O)c(NC(=O)c4ccc(O)c(CC=C(C)C)c4)c(=O)oc3c2C)OC1(C)C [NOVOBIOCIN] | – | 690 | – | – | Active | – |
| Ac-DPQTHANRIYRMIKLLLG-NH2 | 18.6 | 22.9 | ≥ 100 | – | Active | – |
| COC1=C2C[C@@H](C)C[C@H](OC)[C@H](O)[C@@H](C)/C=C(\C)[C@H](OC(N)=O)[C@@H](OC)/C=C\C=C(/C)C(=O)NC(=CC1=O)C2=O [GELDANAMYCIN] | – | > 2 | – | – | – | – |
| CC[C@H](C)[C@H](NC(=O)[C@H](CCCNC(=N)N)NC(=O)[C@H](CC(N)=O)NC(=O)[C@H](C)NC(=O)[C@H](Cc1cnc[nH]1)NC(=O)[C@@H](NC(=O)[C@H](CCC(N)=O)NC(=O)[C@@H]1CCCN1C(=O)[C@H](CC(=O)O)NC(C)=O)[C@@H](C)O)C(=O)N[C@@H](Cc1ccc(O)cc1)C(=O)N[C@@H](CCCNC(=N)N)C(=O)N[C@@H](CCSC)C(=O)N[C@H](C(=O)N[C@H]1CCCCNC(=O)C[C@@H](C(=O)O)NC(=O)[C@H](CC(C)C)NC(=O)CNC(=O)[C@H](CC(C)C)NC1=O)[C@@H](C)CC (Ac-DPQTHANRIYRMIKLGLD-OH; lactam 14-18) | 121 | 97 | ≥ 100 | 37 | – | – |
| CSCC[C@@H]1NC(=O)[C@H](CCCNC(=N)N)NC(=O)[C@H](Cc2ccc(O)cc2)NC(=O)[C@@H](NC(=O)[C@H](CCCNC(=N)N)NC(=O)[C@H](CC(N)=O)NC(=O)[C@H](C)NC(=O)[C@H](Cc2cnc[nH]2)NC(=O)[C@@H](NC(=O)[C@H](CCC(N)=O)NC(=O)[C@@H]2CCCN2C(=O)[C@H](CC(=O)O)NC(C)=O)[C@@H](C)O)CCCCNC(=O)C[C@@H](C(=O)N[C@@H](CCCCN)C(=O)N[C@@H](CC(C)C)C(=O)NCC(=O)N[C@@H](CC(C)C)C(=O)NCC(N)=O)NC1=O (Ac-DPQTHANRKYRMDKLGLG-NH2; lactam 9-13) | > 120 | > 120 | ≥ 100 | 168 | – | – |
| Ac-DPFTHANRIYRMIKLGLG-NH2 | – | – | – | – | Active | – |
| CO[C@H]1/C=C\C=C(/C)C(=O)NC2=CC(=O)C(NCCCCCCNC(=S)Nc3ccc(-c4c5ccc(=O)cc-5oc5cc(O)ccc45)c(C(=O)O)c3)=C(C[C@@H](C)C[C@H](OC)[C@H](O)[C@@H](C)/C=C(\C)[C@@H]1OC(N)=O)C2=O | – | – | – | – | – | Activity [7]: Active |
| CC[C@H](C)[C@H](NC(=O)[C@H](CCCNC(=N)N)NC(=O)[C@H](CC(N)=O)NC(=O)[C@H](C)NC(=O)[C@H](Cc1cnc[nH]1)NC(=O)[C@@H](NC(=O)[C@H](CCC(N)=O)NC(=O)[C@@H]1CCCN1C(=O)[C@H](CC(=O)O)NC(=O)c1ccc2c(c1)C(=O)OC21c2ccc(O)cc2Oc2cc(O)ccc21)[C@@H](C)O)C(=O)N[C@@H](Cc1c[nH]c2ccccc12)C(=O)N[C@@H](CCCNC(=N)N)C(=O)N[C@@H](CCSC)C(=O)N[C@H](C(=O)N[C@@H](CCCCN)C(=O)N[C@@H](CC(C)C)C(=O)N[C@@H](Cc1c[nH]c2ccccc12)C(=O)N[C@@H](CC(C)C)C(=O)N[C@@H](CC(=O)O)C(N)=O)[C@@H](C)CC (5FAM-DPQTHANRIWRMIKLWLD-NH2) | – | – | – | – | – | Activity [8]: inactive |
| Ac-DPQTHANRIYRMIKLGNG-NH2 | – | – | – | – | Active | – |
| Ac-FQAEIAQLMSLIINTFY-NH2 | – | – | – | – | inactive | – |
| Ac-DPQTFANRIYRMIKLGLG-NH2 | – | – | – | – | Active | – |
| C=CCCC[C@](C)(NC(=O)[C@H](CC(C)C)NC(=O)[C@H](CCCCN)NC(=O)[C@@H](NC(=O)[C@](C)(CCCC=C)NC(=O)[C@H](CCCNC(=N)N)NC(=O)[C@H](Cc1ccc(O)cc1)NC(=O)[C@@H](NC(=O)[C@H](CCCNC(=N)N)NC(=O)[C@H](CC(N)=O)NC(=O)[C@H](C)NC(=O)[C@H](Cc1cnc[nH]1)NC(=O)[C@@H](NC(=O)[C@H](CCC(N)=O)NC(=O)[C@@H]1CCCN1C(=O)[C@H](CC(=O)O)NC(C)=O)[C@@H](C)O)[C@@H](C)CC)[C@@H](C)CC)C(=O)N[C@@H](CC(C)C)C(=O)NCC(N)=O (Ac-DPQTHANRIYR[S5]IKL[S5]LG-NH2) | – | 19.1 | ≥ 100 | – | – | – |
| CC[C@H](C)[C@H](NC(=O)[C@H](CCCNC(=N)N)NC(=O)[C@H](CC(N)=O)NC(=O)[C@H](C)NC(=O)[C@H](Cc1cnc[nH]1)NC(=O)[C@@H](NC(=O)[C@H](CCC(N)=O)NC(=O)[C@@H]1CCCN1C(=O)[C@H](CC(=O)O)NC(C)=O)[C@@H](C)O)C(=O)N[C@@H](Cc1ccc(O)cc1)C(=O)N[C@@H](CCCNC(=N)N)C(=O)N[C@@]1(C)CCC/C=C/CCC[C@@](C)(C(=O)N[C@@H](CC(C)C)C(=O)NCC(N)=O)NC(=O)[C@H](CC(C)C)NC(=O)[C@H](CCCCN)NC(=O)[C@H]([C@@H](C)CC)NC1=O (Ac-DPQTHANRIYR[S5]IKL[S5]LG-NH2; staple (E) 12-16) | 18.8 | 26.6 | ≥ 100 | 37.9 | – | – |
| Ac-DPQTHANRIYRLIKLGLG-NH2 | – | – | – | – | Active | – |
| CC[C@H](C)[C@H](NC(=O)[C@H](CCCNC(=N)N)NC(=O)[C@H](CC(N)=O)NC(=O)[C@H](C)NC(=O)[C@H](Cc1cnc[nH]1)NC(=O)[C@@H](NC(=O)[C@H](CCC(N)=O)NC(=O)[C@@H]1CCCN1C(=O)[C@H](CC(=O)O)NC(C)=O)[C@@H](C)O)C(=O)N[C@@H](Cc1ccc(O)cc1)C(=O)N[C@@H](CCCNC(=N)N)C(=O)N[C@H]1CCCCNC(=O)C[C@@H](C(=O)N[C@@H](CC(C)C)C(=O)NCC(N)=O)NC(=O)[C@H](CC(C)C)NC(=O)[C@H](CCCCN)NC(=O)[C@H]([C@@H](C)CC)NC1=O (Ac-DPQTHANRIYRKIKLDLG-NH2; lactam 12-16) | > 67 | > 67 | ≥ 100 | 137 | – | – |
| CO[C@H]1[C@H](OC(=O)c2ccc(C)[nH]2)[C@H](O)[C@@H](Oc2ccc3c(O)c(NC(=O)c4c[nH]c(C(=O)Nc5c(O)c6ccc(O[C@H]7OC(C)(C)[C@@H](OC)[C@H](OC(=O)c8ccc(C)[nH]8)[C@@H]7O)c(C)c6oc5=O)c4C)c(=O)oc3c2C)OC1(C)C [COUMERMYCIN A1] | 15.3 | 19.1 | – | 28.1 | – | – |
